US20230146395A1, “Substituted Pyrimidines and Uses Thereof” (Verge Analytics, Inc., priority 2020, published 2023)
Counter-ions that a name gives are not always drawn.

molecular target: T1, Full length human recombinant PIKFYVE (Homo sapiens, UniProt Q9Y2I7); experiment: Inhibition of PIKfyve (microfluidic electrophoresis kinase assay, PI3P/PS substrate); type: biochemical; conditions: 12 concentrations
T1 construct: Full length human recombinant PIKFYVE; purchased Carna Biosciences (Kobe, Japan); host or cells: baculovirus expression system
Experimental: Full length human recombinant PIKFYVE expressed in baculovirus expression system as N-terminal GST-fusion protein (265 kDa) was obtained from Carna Biosciences (Kobe, Japan). The kinase substrate was prepared by mixing and sonicating fluorescently-labeled phosphatidylinositol 3-phosphate (PI3P) with phospho-L-serine (PS) at a 1:10 ratio in 50 mM HEPES buffer pH 7.5.
The kinase reactions were assembled in 384-well plates (Greiner) in a total volume of […] as follows. Kinase protein was pre-diluted in an assay buffer comprising 25 mM HEPES, pH 7.5, 1 mM DTT, 2.5 mM MgCl2, and 2.5 mM MnCl2, and 0.005% Triton X-100, and dispensed into a 384-well plate (10 μL per well). Test compounds were serially pre-diluted in DMSO and added to the protein samples by acoustic dispensing (Labcyte Echo). The concentration of DMSO was equalized to 1% in all samples. All test compounds were tested at 12 concentrations. Apilimod was used as a reference compound and was tested in identical manner in each assay plate. Control samples (0%-inhibition, in the absence of inhibitor, DMSO only) and 100%-inhibition (in the absence of enzyme) were assembled in replicates of four and were used to calculate %-inhibition in the presence of compounds. The reactions were initiated by addition of 10 μL of 2×PI3P/PS substrate supplemented with ATP. The final concentration of enzyme was 2 nM, the final concentration of ATP was […], and the final concentration of PI3P/PS substrate was 1 μM (PI3P). The kinase reactions were allowed to proceed for 3 h at room temperature. Following incubation, the reactions were quenched by addition of […] of termination buffer (100 mM HEPES, pH 7.5, 0.01% Triton X-100, 20 mM EDTA). Terminated plates were analyzed on a microfluidic electrophoresis instrument (Caliper LabChip® 3000, Caliper Life Sciences/Perkin Elmer). The change in the relative fluorescence intensity of the PI(3)P substrate and PI(3,5)P product peaks was measured. The activity in each test sample was determined as the product to sum ratio (PSR): P/(S+P), where P is the peak height of the product, and S is the peak height of the substrate. Percent inhibition (Pinh) was determined using the following equation:
Pinh=(PSR0% inh−PSRcompound)/(PSR0% inh−PSR100% inh)*100
in which PSRcompound is the product/sum ratio in the presence of compound, PSR0% inh is the product/sum ratio in the absence of compound, and the PSR100% inh is the product/sum ratio in the absence of the enzyme.

T1 sequence (Q9Y2I7 whole entry): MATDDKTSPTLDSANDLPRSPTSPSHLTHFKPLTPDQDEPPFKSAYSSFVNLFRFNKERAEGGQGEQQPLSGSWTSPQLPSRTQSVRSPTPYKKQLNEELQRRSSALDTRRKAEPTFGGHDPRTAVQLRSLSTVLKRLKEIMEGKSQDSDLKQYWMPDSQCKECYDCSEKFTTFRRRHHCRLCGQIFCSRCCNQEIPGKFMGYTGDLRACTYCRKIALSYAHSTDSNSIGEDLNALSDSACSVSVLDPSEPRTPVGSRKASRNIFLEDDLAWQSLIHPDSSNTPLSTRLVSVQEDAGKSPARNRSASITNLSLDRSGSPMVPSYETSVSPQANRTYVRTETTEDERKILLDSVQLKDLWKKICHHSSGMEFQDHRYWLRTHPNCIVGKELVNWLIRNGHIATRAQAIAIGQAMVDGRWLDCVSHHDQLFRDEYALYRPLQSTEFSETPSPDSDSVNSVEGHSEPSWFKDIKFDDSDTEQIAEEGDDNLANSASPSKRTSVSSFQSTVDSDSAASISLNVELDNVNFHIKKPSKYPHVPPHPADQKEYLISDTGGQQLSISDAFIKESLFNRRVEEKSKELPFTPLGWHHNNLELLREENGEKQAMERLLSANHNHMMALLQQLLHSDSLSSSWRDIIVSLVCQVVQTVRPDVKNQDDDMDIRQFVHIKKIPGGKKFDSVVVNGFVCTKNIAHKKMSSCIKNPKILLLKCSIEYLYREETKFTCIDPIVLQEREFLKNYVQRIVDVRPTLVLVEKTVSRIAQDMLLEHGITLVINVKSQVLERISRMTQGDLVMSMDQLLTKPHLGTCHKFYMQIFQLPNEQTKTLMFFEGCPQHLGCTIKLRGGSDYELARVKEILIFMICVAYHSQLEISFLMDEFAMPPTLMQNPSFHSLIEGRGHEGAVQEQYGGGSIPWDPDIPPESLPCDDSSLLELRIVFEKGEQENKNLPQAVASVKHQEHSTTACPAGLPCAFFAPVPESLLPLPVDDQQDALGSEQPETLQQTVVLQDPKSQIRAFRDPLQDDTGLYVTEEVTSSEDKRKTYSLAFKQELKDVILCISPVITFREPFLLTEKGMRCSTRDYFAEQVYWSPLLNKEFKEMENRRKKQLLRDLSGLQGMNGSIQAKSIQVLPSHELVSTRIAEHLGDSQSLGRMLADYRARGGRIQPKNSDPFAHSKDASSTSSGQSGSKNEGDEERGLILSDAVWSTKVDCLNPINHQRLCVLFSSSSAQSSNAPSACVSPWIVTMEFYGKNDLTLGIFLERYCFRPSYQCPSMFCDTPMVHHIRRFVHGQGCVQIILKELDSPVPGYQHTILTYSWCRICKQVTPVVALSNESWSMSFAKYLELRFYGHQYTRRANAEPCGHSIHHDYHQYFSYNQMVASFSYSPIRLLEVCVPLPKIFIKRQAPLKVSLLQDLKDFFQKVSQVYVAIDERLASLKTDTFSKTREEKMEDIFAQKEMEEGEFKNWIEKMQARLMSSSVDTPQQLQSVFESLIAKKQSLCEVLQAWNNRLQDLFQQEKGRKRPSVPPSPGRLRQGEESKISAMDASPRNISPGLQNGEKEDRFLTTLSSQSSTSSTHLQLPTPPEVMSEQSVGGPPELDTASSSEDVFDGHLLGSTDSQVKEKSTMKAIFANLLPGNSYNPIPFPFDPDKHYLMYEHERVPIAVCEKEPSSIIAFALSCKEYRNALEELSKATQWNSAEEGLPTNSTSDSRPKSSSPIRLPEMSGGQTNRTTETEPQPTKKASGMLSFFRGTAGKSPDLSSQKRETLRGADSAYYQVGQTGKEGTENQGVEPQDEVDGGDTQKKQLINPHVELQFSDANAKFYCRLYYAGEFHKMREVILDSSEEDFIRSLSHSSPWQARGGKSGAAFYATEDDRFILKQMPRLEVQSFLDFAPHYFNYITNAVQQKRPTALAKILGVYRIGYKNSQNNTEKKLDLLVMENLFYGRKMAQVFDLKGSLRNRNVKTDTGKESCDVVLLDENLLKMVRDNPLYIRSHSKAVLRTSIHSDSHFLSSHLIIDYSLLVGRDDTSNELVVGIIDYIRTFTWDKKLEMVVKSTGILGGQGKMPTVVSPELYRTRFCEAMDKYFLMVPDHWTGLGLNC

Row | Structure (SMILES) | IC50 [nM]
1 | Cc1cccc(-c2ccn(-c3nc(N4CCOCC4)c4oc(-c5cc(C)n[nH]5)cc4n3)n2)c1 [Compound 173, 6-(3-methyl-1H-pyrazol-5-yl)-4-morpholino-2-[3-(m-tolyl)pyrazol-1-yl]furo[3,2-d]pyrimidine] | 0.6
2 | Cc1cccc(-c2ccn(-c3nc(N4CCOCC4=O)c4oc(-c5ccccn5)cc4n3)n2)c1 [Compound 148] | 3860
3 | Cc1cccc(-c2cnn(-c3nc(N4CCOCC4)c4oc(C(=O)NCCS(C)(=O)=O)cc4n3)c2)c1 [Compound 150, N-(2-(methylsulfonyl)ethyl)-4-morpholino-2-(4-(m-tolyl)-1H-pyrazol-1-yl)furo[3,2-d]pyrimidine-6-carboxamide] | 103
4 | CCN(C)C(=O)c1cc2nc(Nc3cc(-c4ccccc4)[nH]n3)nc(N3CCOCC3)c2o1 [Compound 57, N-ethyl-N-methyl-4-morpholino-2-[(5-phenyl-1H-pyrazol-3-yl)amino]furo[3,2-d]pyrimidine-6-carboxamide, hydrogen chloride] | 37
5 | CN(C)CCCCNC(=O)c1cc2nc(-n3cc(-c4ccccc4)cn3)nc(N3CCOCC3)c2o1 [Compound 167] | 122
6 | O=C(c1cc2nc(Nc3cc(-c4ccccc4)n[nH]3)nc(N3CCOCC3)c2o1)N1CCC1 [Compound 53, azetidin-1-yl(4-morpholino-2-((3-phenyl-1H-pyrazol-5-yl)amino)furo[3,2-d]pyrimidin-6-yl)methanone hydrochloride] | 60
7 | CNC(=O)c1cc2nc(Nc3cc(-c4cccs4)n[nH]3)nc(N3CCOCC3)c2o1 [Compound 85, N-methyl-4-morpholino-2-((5-(thiophen-2-yl)-1H-pyrazol-3-yl)amino)furo[3,2-d]pyrimidine-6-carboxamide, hydrogen chloride] | 69
8 | Cn1ccc(-c2cc3nc(-n4ccc(-c5cccc(Cl)c5)n4)nc(N4CCOCC4)c3o2)n1 [Compound 193, 2-[3-(3-chlorophenyl)pyrazol-1-yl]-6-(1-methylpyrazol-3-yl)-4-morpholino-furo[3,2-d]pyrimidine] | 24.6
9 | c1ccc(-c2cc(Nc3nc(N4CCOCC4)c4occc4n3)n[nH]2)cc1 [Compound 142, 4-morpholino-N-(5-phenyl-1H-pyrazol-3-yl)furo[3,2-d]pyrimidin-2-amine] | 145
10 | c1ccc(-c2cnn(-c3nc(N4CCOCC4)c4oc(-c5ccccn5)cc4n3)c2)cc1 [Compound 161, 4-morpholino-2-(4-phenylpyrazol-1-yl)-6-(2-pyridyl)furo[3,2-d]pyrimidine] | 40.4
11 | CN(CC1CC1)C(=O)c1cc2nc(Nc3cc(-c4ccccc4)[nH]n3)nc(N3CCOCC3)c2o1 [Compound 62, N-(cyclopropylmethyl)-N-methyl-4-morpholino-2-[(5-phenyl-1H-pyrazol-3-yl)amino]furo[3,2-d]pyrimidine-6-carboxamide, hydrogen chloride] | 73
12 | Cc1cccc(-c2cnn(-c3nc(N4CC(F)(F)OC(F)(F)C4)c4oc(-c5cccnc5)cc4n3)c2)c1 [Compound 133, 6-(pyridin-3-yl)-4-(2,2,6,6-tetrafluoromorpholino)-2-(4-(m-tolyl)-1H-pyrazol-1-yl)furo[3,2-d]pyrimidine] | > 20000
13 | CN1CCCC(c2cc3nc(Nc4cc(-c5ccncc5)n[nH]4)nc(N4CCOCC4)c3o2)C1 (centres unmarked) [Compound 37] | ≥ 10000
14 | Cc1cc(-c2cc(Nc3nc(N4CCOCC4)c4oc(-c5ccncc5)cc4n3)[nH]n2)ccn1 [Compound 22, N-(3-(2-methylpyridin-4-yl)-1H-pyrazol-5-yl)-4-morpholino-6-(pyridin-4-yl)furo[3,2-d]pyrimidin-2-amine hydrochloride] | 27
15 | CONC(=O)c1cc2nc(Nc3cc(-c4ccccc4)[nH]n3)nc(N3CCOCC3)c2o1 [Compound 58, N-methoxy-4-morpholino-2-[(5-phenyl-1H-pyrazol-3-yl)amino]furo[3,2-d]pyrimidine-6-carboxamide, hydrogen chloride] | 95
16 | c1cc(-c2cc3nc(Nc4cc(C5CC5)n[nH]4)nc(N4CCOCC4)c3o2)ccn1 [Compound 68, N-(5-cyclopropyl-1H-pyrazol-3-yl)-4-morpholino-6-(pyridin-4-yl)furo[3,2-d]pyrimidin-2-amine, hydrogen chloride] | 185
17 | CN(C)Cc1cc2nc(Nc3cc(-c4ccccc4)n[nH]3)nc(N3CCOCC3)c2o1 [Compound 14] | 847
18 | c1ccc(-n2cc(Nc3nc(N4CCOCC4)c4oc(-c5ccncc5)cc4n3)cn2)cc1 [Compound 49, 4-morpholino-N-(1-phenylpyrazol-4-yl)-6-(4-pyridyl)furo[3,2-d]pyrimidin-2-amine, hydrogen chloride] | 21
19 | Cn1ccc(-c2cc3nc(-n4ccc(Br)n4)nc(N4CCOCC4)c3o2)n1 [Compound 195, 2-(3-bromopyrazol-1-yl)-6-(1-methylpyrazol-3-yl)-4-morpholino-furo[3,2-d]pyrimidine] | 907
20 | CONC(=O)c1cc2nc(-n3ccc(-c4cccc(C)c4)n3)nc(N3CCOCC3)c2o1 [Compound 99, N-methoxy-4-morpholino-2-(3-(m-tolyl)-1H-pyrazol-1-yl)fur[3,2-d]pyrimidine-6-carboxamide] | 78.3
21 | Cn1ccc(-c2cc3nc(-n4cc(-c5ccccc5)cn4)nc(N4CCOCC4)c3o2)n1 [Compound 190, 6-(1-methylpyrazol-3-yl)-4-morpholino-2-(4-phenylpyrazol-1-yl)furo[3,2-d]pyrimidine] | 12.4
22 | C=CC(=O)NCCn1nc(-c2cc3nc(-n4cc(-c5cccc(C)c5)cn4)nc(N4CCOCC4)c3o2)cc1C [Compound 196, N-[2-[5-methyl-3-[4-morpholino-2-[4-(m-tolyl)pyrazol-1-yl]furo[3,2-d]pyrimidin-6-yl]pyrazol-1-yl]ethyl]prop-2-enamide] | 0.9
23 | Cc1cccc(-c2cc(Nc3nc(N4CCOCC4)c4occc4n3)[nH]n2)c1 [Compound 8, 4-morpholino-N-[5-(m-tolyl)-1H-pyrazol-3-yl]furo[3,2-d]pyrimidin-2-amine, hydrogen chloride] | 59.5
24 | Cc1cccc(-c2ccn(-c3nc(N4CCOCC4)c4oc(-c5cnc(C)[nH]5)cc4n3)n2)c1 [Compound 212, 6-(2-methyl-1H-imidazol-5-yl)-4-morpholino-2-(3-(m-tolyl)-1H-pyrazol-1-yl)furo[3,2-d]pyrimidine] | 2.3
25 | CCNC(=O)c1cc2nc(-n3cc(-c4ccccc4)cn3)nc(N3CCOCC3)c2o1 [Compound 154, N-ethyl-4-morpholino-2-(4-phenylpyrazol-1-yl)furo[3,2-d]pyrimidine-6-carboxamide] | 77.3
26 | O=C(O)c1cc2nc(Nc3cc(-c4ccccc4)[nH]n3)nc(N3CCOCC3)c2o1 [Compound 141, 4-morpholino-2-((5-phenyl-1H-pyrazol-3-yl)amino)furo[3,2-d]pyrimidine-6-carboxylic acid] | 252
27 | c1ccc(-c2cnn(-c3nc(N4CCOCC4)c4oc(-c5ccncc5)cc4n3)c2)cc1 [Compound 41, 4-morpholino-2-(4-phenylpyrazol-1-yl)-6-(4-pyridyl)furo[3,2-d]pyrimidine, hydrogen chloride] | 34
28 | c1cc(-c2cc3nc(Nc4cc(CC5CCC5)n[nH]4)nc(N4CCOCC4)c3o2)ccn1 [Compound 71] | 79.8
29 | Cc1c(-c2cccnc2)oc2c(N3CCOCC3)nc(-n3ccc(-c4ccccc4)n3)nc12 [Compound 180, 7-methyl-4-morpholino-2-(3-phenylpyrazol-1-yl)-6-(3-pyridyl)furo[3,2-d]pyrimidine] | 55.6
